Target: Multidrug resistance-associated protein 1 (Homo sapiens, UniProt P33527)
Assay: TP_TRANSPORTER: efflux in GLC4/sb30 cells
Format: functional, cell-based

Chain of Multidrug resistance-associated protein 1 (P33527 whole entry): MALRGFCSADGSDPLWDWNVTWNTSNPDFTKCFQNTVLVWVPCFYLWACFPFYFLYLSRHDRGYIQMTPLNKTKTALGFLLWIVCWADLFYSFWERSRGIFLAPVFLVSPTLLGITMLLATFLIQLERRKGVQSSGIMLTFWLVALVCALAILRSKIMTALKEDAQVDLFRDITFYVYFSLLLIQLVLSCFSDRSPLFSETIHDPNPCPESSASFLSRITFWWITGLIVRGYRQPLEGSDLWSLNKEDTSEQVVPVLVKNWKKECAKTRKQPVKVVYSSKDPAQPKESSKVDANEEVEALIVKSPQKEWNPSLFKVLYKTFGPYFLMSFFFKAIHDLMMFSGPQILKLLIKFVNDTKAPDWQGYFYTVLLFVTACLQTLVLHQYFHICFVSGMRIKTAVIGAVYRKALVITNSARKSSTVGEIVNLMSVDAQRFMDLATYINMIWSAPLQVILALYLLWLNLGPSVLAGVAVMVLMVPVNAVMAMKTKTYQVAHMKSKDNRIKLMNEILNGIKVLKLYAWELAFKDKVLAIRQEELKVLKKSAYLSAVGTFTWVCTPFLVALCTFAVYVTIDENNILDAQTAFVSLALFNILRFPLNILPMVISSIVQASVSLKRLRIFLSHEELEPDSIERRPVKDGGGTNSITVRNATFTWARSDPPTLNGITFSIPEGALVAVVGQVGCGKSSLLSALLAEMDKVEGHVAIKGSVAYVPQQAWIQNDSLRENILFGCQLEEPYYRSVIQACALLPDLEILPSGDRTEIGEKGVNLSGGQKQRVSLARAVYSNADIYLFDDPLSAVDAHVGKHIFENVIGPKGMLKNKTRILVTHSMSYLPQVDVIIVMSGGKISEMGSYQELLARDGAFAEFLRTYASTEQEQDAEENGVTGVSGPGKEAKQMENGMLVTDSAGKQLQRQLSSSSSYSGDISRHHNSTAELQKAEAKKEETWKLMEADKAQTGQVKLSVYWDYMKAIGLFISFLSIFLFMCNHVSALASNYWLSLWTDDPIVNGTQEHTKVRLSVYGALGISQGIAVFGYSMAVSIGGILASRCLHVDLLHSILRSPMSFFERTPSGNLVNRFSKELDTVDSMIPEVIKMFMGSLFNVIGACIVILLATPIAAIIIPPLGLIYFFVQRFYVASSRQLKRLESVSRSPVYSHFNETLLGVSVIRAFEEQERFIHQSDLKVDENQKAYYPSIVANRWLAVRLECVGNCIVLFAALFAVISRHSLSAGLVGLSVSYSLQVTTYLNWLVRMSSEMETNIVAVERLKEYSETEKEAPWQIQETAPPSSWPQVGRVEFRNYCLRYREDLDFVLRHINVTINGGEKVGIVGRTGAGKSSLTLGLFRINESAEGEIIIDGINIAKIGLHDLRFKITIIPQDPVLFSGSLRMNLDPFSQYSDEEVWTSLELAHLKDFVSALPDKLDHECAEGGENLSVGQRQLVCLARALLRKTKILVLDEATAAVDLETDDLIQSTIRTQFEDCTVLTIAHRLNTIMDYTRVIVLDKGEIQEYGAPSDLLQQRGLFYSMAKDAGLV

Activity: substrate [+]
SMILES: O=C(O)c1ccc(C(=O)O)c(-c2c3cc(Cl)c(=O)cc-3oc3cc(O)c(Cl)cc23)c1.O=C(O)c1cccc(C(=O)O)c1-c1c2cc(Cl)c(=O)cc-2oc2cc(O)c(Cl)cc12

From ChEMBL document CHEMBL2074005, “Use of the anionic dye carboxy-2',7'-dichlorofluorescein for sensitive flow cytometric detection of multidrug resistance-associated protein activity” (Int J Oncol, 1999)
